Experimental data as given in patent US20050049294A1, “Methods of using [3.2.0] heterocyclic compounds and analogs thereof” (priority 2003, published 2005).
“And” between values parts separate entries of the source, which are not always exact repeats. Identical values can stand only once. Like-named read-outs stand apart in the source and are kept apart here.

Experiments:
MDA-MB-231 cells = experiment: Cell growth inhibition (resazurin, 48 hours), MDA-MB-231; type: cell-based; settings: Homo sapiens
U266 cells = experiment: Cell growth inhibition (resazurin, 48 hours), U266
HL-60 cells = experiment: Cell growth inhibition (resazurin, 48 hours), HL-60
Source text: (§1) The DNA binding agent Mitoxantrone was included as a control, as HL-60/MX2 cells are reported to be resistant to this chemotherapeutic agent (Harker W. G. et al. 1989).

[1] = target: T1, trypsin-like activity of purified rabbit 20S proteasomes (Oryctolagus cuniculus, UniProt G1SWK8); settings: under the conditions tested
T1 sequence (G1SWK8 1-271): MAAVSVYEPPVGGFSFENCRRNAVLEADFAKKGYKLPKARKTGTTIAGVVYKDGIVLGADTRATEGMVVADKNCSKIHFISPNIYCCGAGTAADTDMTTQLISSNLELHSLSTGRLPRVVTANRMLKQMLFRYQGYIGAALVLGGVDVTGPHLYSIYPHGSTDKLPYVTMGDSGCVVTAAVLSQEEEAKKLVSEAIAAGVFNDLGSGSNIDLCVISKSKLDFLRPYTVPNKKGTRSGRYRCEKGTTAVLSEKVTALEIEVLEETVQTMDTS

[2] = target: T1, trypsin-like activity of purified rabbit 20S proteasomes; experiment: biochemical
HL-60/MX2 cells = experiment: cells; settings: for Fold change: ratio of EC50 values (HL-60/MX2:HL-60)
Source text: as §1

[3] = target: T2, chymotrypsin-like activity of rabbit muscle 20S proteasomes (Oryctolagus cuniculus, UniProt G1T4Q9); experiment: Inhibition of chymotrypsin-like activity of purified rabbit muscle 20S proteasome (suc-LLVY-AMC); type: biochemical
T2 sequence (G1T4Q9 1-263): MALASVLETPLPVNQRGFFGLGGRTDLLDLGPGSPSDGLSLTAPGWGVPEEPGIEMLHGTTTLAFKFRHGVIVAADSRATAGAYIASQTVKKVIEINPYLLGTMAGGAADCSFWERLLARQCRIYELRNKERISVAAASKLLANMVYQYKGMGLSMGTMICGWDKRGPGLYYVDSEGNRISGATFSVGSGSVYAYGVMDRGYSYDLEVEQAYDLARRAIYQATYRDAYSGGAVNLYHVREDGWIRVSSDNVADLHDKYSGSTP
Method: This peptide substrate is specific for the chymotrypsin-like enzyme activity of the proteasome.
Omuralide was prepared as a 10 mM stock in DMSO and stored in 5 μL aliquots at −80° C. […] The assay measures the hydrolysis of Suc-LLVY-AMC into Suc-LLVY and AMC. The released coumarin (AMC) was measured fluorometrically by using λex=390 nm and λem=460 nm. The assays were performed in a microtiter plate (Corning 3904), and followed kinetically with measurements every five minutes. The instrument used was a Thermo Lab Systems Fluoroskan, with the incubation chamber set to 37° C. The assays were performed according to the manufacturer's protocol, with the following changes. The proteasome was activated as described with SDS, and held on ice prior to the assay. […] Ten microliters of each dose were added in triplicate to the assay plate, and 190 μL of the activated proteasome was added and mixed. The samples were pre-incubated in the Fluoroskan for 5 minutes at 37° C. Substrate was added and the kinetics of AMC were followed for one hour.

NCI-H292 cells = experiment: Cell growth inhibition (resazurin, 48 hours), NCI-H292; type: cell-based, human
[4] = tested on: NF-κB-mediated luciferase activity in HEK293 NF-κB/Luc cells; experiment: NF-κB-mediated luciferase reporter gene assay; type: cell-based, human; settings: for EC50: Homo sapiens; for luciferase activity upon TNF-α stimulation: pretreatment of NF-κB/Luc 293 cells
Method: (§2) The HEK293 NF-κB/luciferase reporter cell line is a derivative of the human embryonic kidney cell line (ATCC; CRL- 1573) and carries a luciferase reporter gene under the regulation of 5×NF-κB binding sites. […] When performing the luciferase assay, the DMEM basal medium was replaced with phenol-red free DMEM basal medium and the G418 was omitted.
For NF-κB-mediated luciferase assays, HEK293 NF-κB/luciferase cells were seeded at 1.5×10^4 cells/well in 90 μl phenol-red free DMEM complete medium into Corning 3917 white opaque-bottom tissue culture plates. […] This dilution series was further diluted 40× in appropriate culture medium and ten μl aliquots were added to the test wells in triplicate resulting in final test concentrations ranging from 1 μM to 320 pM. […] For Formula II-19, a 127 μM starting dilution was made in 100% DMSO and the final test concentrations ranging from 317 nM to 0.1 nM. […] After 1 hr pretreatment, 10 μl of a 50 ng/ml TNF-α solution, prepared in the phenol-red free DMEM medium was added, and the plates were incubated for an additional 6 hr.
NF-κB inducible luciferase activity was measured at 6 hours.
as §2, with “CRL-1573)” for “CRL- 1573)”
For NF-κB-mediated luciferase assays, HEK293 NF-κB/luciferase cells were seeded at 1.5×10^4 cells/well in 90 μl phenol-red free DMEM complete medium into Corning 3917 white opaque-bottom tissue culture plates. For Formula II-2, Formula II-4 and Formula II-5A, a 400 μM starting dilution was made in 100% DMSO and this dilution was used to generate a 8-point half log dilution series. This dilution series was further diluted 40× in appropriate culture medium and ten μl aliquots were added to the test wells in triplicate resulting in final test concentrations ranging from 1 μM to 320 pM. […] After 1 hr pretreatment, 10 μl of a 50 ng/ml TNF-α solution, prepared in the phenol-red free DMEM medium was added, and the plates were incubated for an additional 6 hr.
The relative luciferase units (RLU) were measured by using a Fusion microplate fluorometer (Packard Bioscience).

MES-SA/Dx5 cells = experiment: cells; settings: for Fold change: ratio of EC50 values (MES-SA/Dx5:MES-SA)
[5] = Homo sapiens, U-266, Table 13, U266
[6] = Homo sapiens, U-266, read-out: U266 EC50 (nM), Table 15, mean EC50
[7] = Homo sapiens, HL-60, read-out: EC50 (nM) HL-60, Table 17
[8] = read-out: EC50 (nM) HL-60, Table 17
[9] = Homo sapiens, HL60/MX2, read-out: EC50 (nM) HL-60/MX2, Table 17
[10] = read-out: EC50 (nM) HL-60/MX2, Table 17
[11] = Homo sapiens, NCI-H292, Table 13, NCI-H292
[12] = Homo sapiens, MES-SA/Dx5, read-out: EC50 (nM) MES-SA/Dx5, Table 16
[13] = read-out: EC50 (nM) MES-SA/Dx5, Table 16
[14] = Table 3, mean EC50, purified rabbit 20S proteasomes, read-out: EC50 Values, Chymotrypsin-like

Row | SMILES | EC50 (MDA-MB-231 cells; MDA-MB-231) [nM] | EC50 (U266 cells; [5]) [nM] | EC50 (U266 cells; [6]) [nM] | EC50 (HL-60 cells; [7]) [nM] | EC50 (HL-60 cells; [8]) [nM] | inhibit the trypsin-like activity of the 20S proteasome [1] | EC50 [2] [µM] | EC50 (HL-60/MX2 cells; [9]) [nM] | Fold change (HL-60/MX2 cells; Table 17) [fold] | EC50 (HL-60/MX2 cells; [10]) [nM] | EC50 (NCI-H292 cells; [11]) [nM] | luciferase activity upon TNF-α stimulation [4] | EC50 (MES-SA/Dx5 cells; [12]) [nM] | Fold change (MES-SA/Dx5 cells; Table 16) [fold] | EC50 (MES-SA/Dx5 cells; [13]) [nM] | EC50 [3, 14] [µM] | further results
1 | C[C@@]12OC(=O)[C@]1([C@@H](O)C1CCCCC1)NC(=O)[C@@H]2CCCl [Formula II-2] | 121 ± 23 | 32 | 36 | 237 | 176 | able to inhibit | 0.23 | 142 | 0.7 | 133 | 322 | dose-dependent decrease | 220 | 1.0 | 138 |  | EC50 ([3]; EC50, chymotrypsin-like activity of the proteasome): 0.0185 µM; EC50 ([3]; EC50 Values, Chymotrypsin-like): 0.018 µM; EC50 ([4]; HEK293, representative experiment, Example 43 (FIG. 44, 45), read-out: calculated EC50 to inhibit NF-κB inducible luciferase activity): 0.073 µM
2 | C[C@@]12OC(=O)[C@]1([C@@H](O)C1CCCCC1)NC(=O)[C@@H]2CCBr [Formula II-4] | 114 ± 4 | 39 | 36 | 111 |  | able to inhibit | 0.109 | 103 | 0.8 | 97 | 192 | dose-dependent decrease | 178 | 0.9 | 93 | 0.0142 | EC50 (U266 cells; Table 13, U266): 34 nM; EC50 ([3]; representative experiment, Example 44 (FIG. 46, 47), read-out: EC50, chymotrypsin-like activity of the proteasome): 0.015 µM; EC50 ([4]; HEK293, read-out: calculated EC50 to inhibit NF-κB inducible luciferase activity): 0.067 µM
3 | C[C@@]12OC(=O)[C@]1([C@@H](O)[C@@H]1C=CCCC1)NC(=O)[C@@H]2CCCl [Formula II-16, Salinosporamide A] |  |  |  |  |  | able to inhibit |  |  |  |  |  | dose-dependent decrease |  |  |  |  | EC50 (MDA-MB-231 cells; MDA-MB-231, 48 h): 67 nM; EC50 (MDA-MB-231 cells; MDA-MB-231, 48 h, read-out: EC50 (nM), mean ± SD): 87 ± 40 nM; EC50 (U266 cells; Homo sapiens, U-266, 48 h, read-out: EC50 (nM), mean ± SD): 4.7 ± 0.7 nM; EC50 (U266 cells; Homo sapiens, U-266, read-out: U266 EC50 (nM)): 4.1 nM; EC50 (HL-60 cells; Homo sapiens, HL-60, Table 8, HL-60): 27 nM; % cytotoxicity (HL-60 cells; Table 8, HL-60): 88% and 91%; EC50 (HL-60 cells; Table 8, HL-60): 30 nM; EC50 (HL-60/MX2 cells; Homo sapiens, HL60/MX2, Table 8, HL-60/MX2): 28 nM; % cytotoxicity (HL-60/MX2 cells; Table 8, HL-60/MX2): 84% and 89%; EC50 (HL-60/MX2 cells; Table 8, HL-60/MX2): 25 nM; more potent than Omuralide ([3]; 20S proteasome assay EC50 values): approximately 40 fold; EC50 (NCI-H292 cells; Homo sapiens, NCI-H292, 48 h): 97 nM; EC50 (NCI-H292 cells; Homo sapiens, NCI-H292, 48 h, read-out: EC50 (nM), mean ± SD): 66 ± 29 nM; EC50 ([4]; HEK293, 6 h, read-out: calculated EC50 for inhibition of NF-κB/luciferase activity): ~0.007 µM; EC50 (MES-SA/Dx5 cells; Homo sapiens, MES-SA/Dx5, read-out: EC50 (nM), mean ± SD): 23 ± 1 nM; % cytotoxicity, mean ± SD (MES-SA/Dx5 cells; Table 7, MES-SA/Dx5): 92 ± 2%
4 | C[C@@]12OC(=O)[C@]1([C@@H](O)[C@@H]1C=CCCC1)NC(=O)[C@@H]2CCBr [Formula II-18] | 16 ± 2.8 | 4.2 | 4.2 | 27 | 23 | able to inhibit | 0.014 | 19 | 0.7 | 18 | 29 | dose-dependent decrease |  | 1.2 |  | 0.0022 | EC50 (NCI-H292 cells; Table 13, NCI-H292): 41 nM
